{"source": "patent US5157052A", "about": "“Method for inhibiting IgE production” (priority 1990, dated 1992)", "system": "IgE", "assay": "Inhibition of de novo IgE synthesis after oral (intragastric) administration", "assay_type": "in vivo, mouse (Balb/c female)", "conditions": "for IgE ± SD: 20 μg intragastric TID days 3 and 4", "procedure": "ELISA (enzyme linked immunosorbant assay) measurements of IgE are as follows. About 5 μg of B1E3 antibody in 100 μl borate buffered saline (pH8.5) is added to wells of a NuncImmulon II 96 well plate (DiRuscio & Assoc., St. Louis, Mo.) at 37° C. for 90 minutes. The non-bound antibody is removed by flicking the plate. Unreacted sites on the plastic plate are blocked by adding about 200 μl of a 2% solution of newborn bovine serum (NBS) in PBS at 37° C. for 60 minutes. The standard IgE (or an unknown murine serum sample) is diluted to between about 4 ng/ml-256 ng/ml in Hanks-HS (20 mM Hepes, 2% NBS in Hanks Balanced Salt Solution, Gibco, Grand Island, N.Y.) or to 1/200 to 1/1000 in Hanks-HS respectively. 100 μl of standard (or unknown dilutions) are added in triplicate to the wells of the plate and allowed to absorb to B1E3 antibody at about 37° C. for 2-4 hours. The solution is removed by flicking the plate and each well is washed with about 0.5 ml 0.05% Tween 20-PBS 5 times. About 100 μl of biotinylated R1E4, called the primary antibody, diluted to 200 ng/ml is added to all wells and incubated at about 4° C. overnight. The solution is removed by flicking the plate and washed 5 times as described above. The developing reagent (Avidin and biotin-horse radish peroxidase) is incubated in 2% NBS in PBS at ambient temperature for 30 minutes, according to manufacturer's specifications (Vector Laboratories, Burlingame, Calif.). About 100 μl of developing reagent is added to each well and incubated at ambient temperature for 30 minutes. Colorimetric substrate for the developing reagent (ABTS peroxidase substrate system, KPL, Gaithersburg, Md.) is prepared by mixing equal volumes of solutions A and B and incubating at ambient temperature for 60 minutes. The developing reagent solution is removed by flicking the plate and washed 5 times as described above. About 100 μl of the mixture of substrates is added to each well and incubated at ambient temperature for 60 minutes. The optical density of each well is determined on a BioTek ELISA reader (Biotek Instruments, Inc., Burlington, Vermont) and the absorbance data transferred electronically to a DEC VAX mainframe computer. A standard curve is fitted to the IgE standard optical densities using straight line, linear regression statistical fits. IgE in the unknown serum samples is determined by comparing the optical density of the unknown to the standard curve and multiplying that number by the dilution of serum used in the assay.\nThree groups of 4 Balb/c female mice per group are injected with both 100 μg FF1-4D5 antibody and 100 μg H∂A1 antibody (Groups B, C, and D). Another group of 4 Balb/c female mice is injected with PBS alone, unstimulated control Group A. One of the stimulated group were not given any prostaglandin control Group B. On day 3 and 4, individual groups receive an intragastric feeding TID of 0.25 ml of 20 μg of (±) methyl 11α,16-dihydroxy-16-methyl-9-oxoprosta-5Z,13E-dien-1-oate (Group C) or 20 μg of prostaglandin E2 (Group D) dissolved in PBS.", "data": [{"smiles": "CCCCC(C)(O)C/C=C/[C@H]1[C@H](O)CC(=O)[C@@H]1C/C=C\\CCCC(=O)OC", "note": "(mixture of isomers) [(±) methyl 11α,16-dihydroxy-16-methyl-9-oxoprosta-5Z,13E-dien-1-oate]", "values": [{"measurement": "inhibition of de novo IgE synthesis after oral administration", "setting": "20 μg intragastric TID", "result": "significantly inhibits de novo IgE synthesis after oral administration"}, {"measurement": "IgE ± SD", "setting": "day 8 (stimulated control 5792, unstimulated 1015)", "result": "1490 ± 525", "unit": "ng/mL"}, {"measurement": "IgE ± SD", "setting": "day 10 (stimulated control 1498)", "result": "1131 ± 198", "unit": "ng/mL"}, {"measurement": "IgE ± SD", "setting": "day -1 baseline before treatment", "result": "1115 ± 201", "unit": "ng/mL"}]}]}
